# Experimental data as given in US20230338349A1, “LOW DOSE REGIMEN AND FORMULATION OF A 5-METHYL-1,2,4-OXADIAZOL-3-YL COMPOUND” (Eli Lilly and Company, priority 2020, published 2023).
# Like-named read-outs stand apart in the source and are kept apart here.
# Assay: Single ascending dose study in healthy subjects, pharmacokinetics of compound of Formula I
# Format: in vivo, human
# Conditions: for concentration at 0.5 h / concentration at 1 h / concentration at 1.5 h / concentration at 2 h / concentration at 3 h / concentration at 4 h / concentration at 5 h / concentration at 6 h / concentration at 8 h / concentration at 12 h / concentration at 24 h / concentration at 48 h / Tmax / half-life / Cmax / CL renal / Vd/F: human, plasma; for concentration at 0.5 h / concentration at 1 h / concentration at 1.5 h / concentration at 2 h / concentration at 3 h / concentration at 4 h / concentration at 5 h / concentration at 6 h / concentration at 8 h / concentration at 12 h / concentration at 24 h / concentration at 48 h: mean; for Vd/F: read-out: Vz/F (apparent volume of distribution after oral administration)
# Procedure: A Phase 1, single-center, subject- and investigator-blind, single-ascending dose, placebo-controlled, crossover, randomized study is performed to evaluate safety, tolerability, and pharmacokinetics (PK) of the compound of Formula I in healthy subjects. The study is conducted in 2 alternating cohorts (cohorts 1 and 2) in up to 3 study periods across 6 dose levels. Subjects are randomized to 1 of 3 treatment sequences in each cohort, with each sequence including 2 doses of compound of Formula I and 1 placebo dose over the 3 study periods in a complete crossover manner.
# After an overnight fast of at least 8 hours, oral capsules are administered with approximately 240 mL of room-temperature water in the morning of each dosing day in a sitting position. Doses of 0.15 mg to 2 mg are administered as an oral solution of compound of Formula I via an oral dosing syringe with water similar to oral capsule dosing.
# The capsules containing the compound of Formula I are prepared extemporaneously. Oral doses of 0.15 mg to 2 mg of the compound of Formula I are prepared extemporaneously as drug in solution. For any specific cohort/dosing period, the total number of capsules administered is the same for all subjects, regardless of whether assigned to placebo or the compound of Formula I. However, the number of capsules may vary between dosing periods and cohorts. This is similarly the case for extemporaneously prepared oral dosing solutions to maintain the blind. […] A matching volume of oral solution vehicle without compound of Formula I is used as placebo for the doses of 0.15 mg to 2 mg.
# Venous blood samples of approximately 3 mL each are collected to determine the plasma concentrations of compound of Formula I. Concentrations of compound of Formula I are assayed using a validated liquid chromatography with tandem mass spectrometry method. PK parameter estimates for compound of Formula I are calculated using standard noncompartmental methods of analysis. Plasma concentrations of compound of Formula I are summarized by administered dose of compound of Formula I and the approximate time of PK blood sample collection. Following the procedure essentially as described above, PK data for a single ascending dose of the compound of Formula I in healthy subjects are set forth in Table 3 and Table 4.
# [1] = single oral dose 0.6 mg, geometric mean (% CV)
# [2] = single oral dose 2 mg, geometric mean (% CV)
# [3] = single oral dose 5 mg, geometric mean (% CV)
# [4] = single oral dose 10 mg, geometric mean (% CV)
# [5] = single oral dose 16 mg, geometric mean (% CV)
structure (smiles),measurement,setting,value
"CC(=O)Nc1nc(F)c(CN2CC[C@H](OCc3noc(C)n3)C[C@@H]2C)s1 [compound of Formula I, N-[4-fluoro-5-[[(2S,4S)-2-methyl-4-[(5-methyl-1,2,4-oxadiazol-3-yl)methoxy]-1-piperidyl]methyl]thiazol-2-yl]acetamide]",AUC(0-∞) dose proportionality,0.6-mg to 16-mg dose range,increase approximately dose-proportionally
same,Cmax dose proportionality,0.6-mg to 16-mg dose range,increase approximately dose-proportionally
same,concentration at 0.5 h,single oral dose 0.15 mg,0.271 ng/mL
same,concentration at 1 h,single oral dose 0.15 mg,0.278 ng/mL
same,concentration at 1.5 h,single oral dose 0.15 mg,0.246 ng/mL
same,concentration at 2 h,single oral dose 0.15 mg,0.179 ng/mL
same,concentration at 3 h,single oral dose 0.15 mg,0.161 ng/mL
same,concentration at 0.5 h,single oral dose 0.6 mg,6.15 ng/mL
same,concentration at 1 h,single oral dose 0.6 mg,6.25 ng/mL
same,concentration at 1.5 h,single oral dose 0.6 mg,5.21 ng/mL
same,concentration at 2 h,single oral dose 0.6 mg,4.84 ng/mL
same,concentration at 3 h,single oral dose 0.6 mg,3.96 ng/mL
same,concentration at 4 h,single oral dose 0.6 mg,3.6 ng/mL
same,concentration at 5 h,single oral dose 0.6 mg,3.02 ng/mL
same,concentration at 6 h,single oral dose 0.6 mg,2.35 ng/mL
same,concentration at 8 h,single oral dose 0.6 mg,2.1 ng/mL
same,concentration at 12 h,single oral dose 0.6 mg,1.09 ng/mL
same,concentration at 24 h,single oral dose 0.6 mg,0.307 ng/mL
same,concentration at 0.5 h,single oral dose 2 mg,16.2 ng/mL
same,concentration at 1 h,single oral dose 2 mg,21.8 ng/mL
same,concentration at 1.5 h,single oral dose 2 mg,19.5 ng/mL
same,concentration at 2 h,single oral dose 2 mg,18.6 ng/mL
same,concentration at 3 h,single oral dose 2 mg,15.3 ng/mL
same,concentration at 4 h,single oral dose 2 mg,12.6 ng/mL
same,concentration at 5 h,single oral dose 2 mg,10.5 ng/mL
same,concentration at 6 h,single oral dose 2 mg,8.75 ng/mL
same,concentration at 8 h,single oral dose 2 mg,7.09 ng/mL
same,concentration at 12 h,single oral dose 2 mg,4.24 ng/mL
same,concentration at 24 h,single oral dose 2 mg,1.34 ng/mL
same,concentration at 0.5 h,single oral dose 5 mg,14.6 ng/mL
same,concentration at 1 h,single oral dose 5 mg,58.9 ng/mL
same,concentration at 1.5 h,single oral dose 5 mg,55.3 ng/mL
same,concentration at 2 h,single oral dose 5 mg,50.3 ng/mL
same,concentration at 3 h,single oral dose 5 mg,43.1 ng/mL
same,concentration at 4 h,single oral dose 5 mg,36.5 ng/mL
same,concentration at 5 h,single oral dose 5 mg,29.5 ng/mL
same,concentration at 6 h,single oral dose 5 mg,24.8 ng/mL
same,concentration at 8 h,single oral dose 5 mg,18.4 ng/mL
same,concentration at 12 h,single oral dose 5 mg,9.74 ng/mL
same,concentration at 24 h,single oral dose 5 mg,2.76 ng/mL
same,concentration at 48 h,single oral dose 5 mg,0.634 ng/mL
same,concentration at 0.5 h,single oral dose 10 mg,28.8 ng/mL
same,concentration at 1 h,single oral dose 10 mg,122 ng/mL
same,concentration at 1.5 h,single oral dose 10 mg,127 ng/mL
same,concentration at 2 h,single oral dose 10 mg,125 ng/mL
same,concentration at 3 h,single oral dose 10 mg,106 ng/mL
same,concentration at 4 h,single oral dose 10 mg,100 ng/mL
same,concentration at 5 h,single oral dose 10 mg,81.7 ng/mL
same,concentration at 6 h,single oral dose 10 mg,72.3 ng/mL
same,concentration at 8 h,single oral dose 10 mg,55.1 ng/mL
same,concentration at 12 h,single oral dose 10 mg,32.7 ng/mL
same,concentration at 24 h,single oral dose 10 mg,11 ng/mL
same,concentration at 48 h,single oral dose 10 mg,2.28 ng/mL
same,concentration at 0.5 h,single oral dose 16 mg,59.7 ng/mL
same,concentration at 1 h,single oral dose 16 mg,150 ng/mL
same,concentration at 1.5 h,single oral dose 16 mg,183 ng/mL
same,concentration at 2 h,single oral dose 16 mg,187 ng/mL
same,concentration at 3 h,single oral dose 16 mg,153 ng/mL
same,concentration at 4 h,single oral dose 16 mg,127 ng/mL
same,concentration at 5 h,single oral dose 16 mg,100 ng/mL
same,concentration at 6 h,single oral dose 16 mg,88 ng/mL
same,concentration at 8 h,single oral dose 16 mg,63 ng/mL
same,concentration at 12 h,single oral dose 16 mg,32.2 ng/mL
same,concentration at 24 h,single oral dose 16 mg,6.83 ng/mL
same,concentration at 48 h,single oral dose 16 mg,0.828 ng/mL
same,Tmax,"oral, summary over the single ascending doses, read-out: median tmax",~1 h
same,half-life,"oral, summary over the single ascending doses, read-out: t1/2 (converted)",~6 h
same,Cmax,"single oral dose 0.15 mg, geometric mean (% CV)",0.318 ng/mL
same,Tmax,"single oral dose 0.15 mg, median, read-out: tmax",1.02 h
same,Cmax,[1],6.61 ng/mL
same,CL renal,"single oral dose 0.6 mg, geometric mean (% CV), read-out: CLr (renal clearance) (converted)",19.5 mL/min
same,Vd/F,[1],120 L
same,half-life,"single oral dose 0.6 mg, geometric mean, read-out: t1/2 (terminal half-life) (converted)",6.08 h
same,Tmax,"single oral dose 0.6 mg, median, read-out: tmax",1 h
same,Cmax,[2],20.9 ng/mL
same,CL renal,"single oral dose 2 mg, geometric mean (% CV), read-out: CLr (renal clearance) (converted)",20.8 mL/min
same,Vd/F,[2],119 L
same,half-life,"single oral dose 2 mg, geometric mean, read-out: t1/2 (terminal half-life) (converted)",5.48 h
same,Tmax,"single oral dose 2 mg, median, read-out: tmax",1.25 h
same,Cmax,[3],59.1 ng/mL
same,CL renal,"single oral dose 5 mg, geometric mean (% CV), read-out: CLr (renal clearance) (converted)",19.7 mL/min
same,Vd/F,[3],114 L
same,half-life,"single oral dose 5 mg, geometric mean, read-out: t1/2 (terminal half-life) (converted)",6.23 h
same,Tmax,"single oral dose 5 mg, median, read-out: tmax",1.02 h
same,Cmax,[4],134 ng/mL
same,CL renal,"single oral dose 10 mg, geometric mean (% CV), read-out: CLr (renal clearance) (converted)",20.3 mL/min
same,Vd/F,[4],104 L
same,half-life,"single oral dose 10 mg, geometric mean, read-out: t1/2 (terminal half-life) (converted)",8.82 h
same,Tmax,"single oral dose 10 mg, median, read-out: tmax",1.5 h
same,Cmax,[5],199 ng/mL
same,CL renal,"single oral dose 16 mg, geometric mean (% CV), N = 3, read-out: CLr (renal clearance) (converted)",16 mL/min
same,Vd/F,[5],102 L
same,half-life,"single oral dose 16 mg, geometric mean, read-out: t1/2 (terminal half-life) (converted)",5.92 h
same,Tmax,"single oral dose 16 mg, median, read-out: tmax",1.98 h
same,Ae0-24 (amount excreted in urine up to 24 hours postdose),"single oral dose 0.15 mg, geometric mean, N=5",0.003 mg
same,AUC(0-∞),[1],44.0 (33) ngxh/mL
same,Ae0-24 (amount excreted in urine up to 24 hours postdose),[1],0.048 (53%) mg
same,CL/F (apparent clearance calculated after oral administration),[1],13.6 (33) L/h
same,AUC(0-∞),[2],133 (88) ngxh/mL
same,Ae0-24 (amount excreted in urine up to 24 hours postdose),[2],0.155 (57%) mg
same,CL/F (apparent clearance calculated after oral administration),[2],15.1 (88) L/h
same,AUC(0-∞),[3],396 (39) ngxh/mL
same,Ae0-24 (amount excreted in urine up to 24 hours postdose),[3],0.436 (57%) mg
same,CL/F (apparent clearance calculated after oral administration),[3],12.6 (39) L/h
same,AUC(0-∞),[4],1220 (28) ngxh/mL
same,Ae0-24 (amount excreted in urine up to 24 hours postdose),[4],1.3 (30%) mg
same,CL/F (apparent clearance calculated after oral administration),[4],8.20 (28) L/h
same,AUC(0-∞),[5],1340 (19) ngxh/mL
same,Ae0-24 (amount excreted in urine up to 24 hours postdose),[5],1.14 (36%) mg
same,CL/F (apparent clearance calculated after oral administration),[5],11.9 (19) L/h
